Target: LPA5 receptor (Homo sapiens (Human), UniProt Q9H1C0)
Assay: In vitro LPA5 receptor assay (LPA-driven intracellular calcium release, FLIPR)
Type: cell-based
Settings: RH7777 cells expressing human LPA5 receptors; LPA at EC90
Description: In Vitro LPA5 Receptor Assay
(§1) Engagement of the LPA5 receptor by its ligand, oleoyl-L-α-lysophosphatidic acid (LPA), leads to the release of intracellular stores of calcium into the cytoplasm mediated through a Gq-driven increase in inositol triphosphate (IP3) levels. Gq is a heterotrimeric G protein subunit that activates phospholipase C.
The ability of test compounds to prevent LPA-driven intracellular release of stored calcium from RH7777 cells expressing human LPA5 receptors was assayed by stimulating the cells with LPA in the presence of various test compounds to measure the test compounds'antagonism, i.e. activity in vitro.
(§2) Approximately 10,000 cells in normal culture medium (Minimal Essential Media, 10% Foetal Calf Serum) were dispensed per assay well in a black clear bottom poly-D-lysine coated 384 well plate (Corning). Cells were allowed to settle for thirty minutes at room temperature before being incubated overnight at 37° C., 5% CO2. Sixteen to twenty hours after dispensing, the cells were loaded with a calcium-sensitive fluorescent dye by replacing the culture medium with assay buffer (1× Hanks buffered saline, 25 mM HEPES, 0.1% w/v fatty acid free BSA (bovine serum albumin), pH7.4) containing 1.25 mM probenecid and 1× Calcium 5 Reagent (Molecular Devices). Cells were incubated at 37° C. for one hour to allow for dye uptake.
(§3) To test for antagonist activity, test compounds at a final concentration range between 0.32 nM-10 μM (diluted in assay buffer) were added to the assay wells and allowed to incubate for fifteen minutes. […] Ligand-dependent changes in intracellular calcium levels were determined by measuring changes in fluorescence of the dye over […] following excitation over […].

LPA5 receptor, sequence (Q9H1C0 whole entry): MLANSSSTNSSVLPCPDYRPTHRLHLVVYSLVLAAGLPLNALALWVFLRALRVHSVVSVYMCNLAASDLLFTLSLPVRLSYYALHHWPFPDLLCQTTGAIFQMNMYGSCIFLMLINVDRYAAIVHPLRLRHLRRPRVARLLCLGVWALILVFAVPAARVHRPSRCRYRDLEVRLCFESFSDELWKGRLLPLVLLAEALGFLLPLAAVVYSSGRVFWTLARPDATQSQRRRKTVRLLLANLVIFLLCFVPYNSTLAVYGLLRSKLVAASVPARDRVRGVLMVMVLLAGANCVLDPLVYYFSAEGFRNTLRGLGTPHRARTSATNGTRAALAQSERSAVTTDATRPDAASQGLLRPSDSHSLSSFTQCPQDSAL

Row | SMILES | IC50 [nM]
1 | COc1ccccc1Oc1ccc(C(=O)N(Cc2ccc(C(=O)O)cc2)CC(C)(F)F)cc1 [Example 63, 4-((N-(2,2-Difluoropropyl)-4-(2-methoxyphenoxy)-benzamido)methyl)benzoic acid] | 10
2 | O=C(O)c1ccc(CN(CC2CC2)C(=O)c2ccc(Oc3ccccc3F)cn2)cc1 [Example 77, 4-((N-(Cyclopropylmethyl)-5-(2-fluorophenoxy)picolinamido)methyl)benzoic acid] | 74
3 | N#Cc1ccccc1Oc1ccc(C(=O)N(Cc2ccccc2)Cc2ccc(C(=O)O)cc2)cc1 [Example 27, 4-((N-Benzyl-4-(2-cyanophenoxy)benzamido)methyl)benzoic acid] | 200
4 | Cc1ccccc1Oc1ccc(C(=O)N(Cc2ccc(C(=O)O)cc2)CC(F)(F)F)cc1 [Example 70, 4-((4-(o-Tolyloxy)-N-(2,2,2-trifluoroethyl)benzamido)methyl)benzoic acid] | 140
5 | CCCN(Cc1ccc(C(=O)O)cc1)C(=O)c1ccc(Oc2ccccc2OC)cc1 [Example 62, 4-((4-(2-Methoxyphenoxy)-N-propylbenzamido)methyl)benzoic acid] | 9
6 | O=C(O)c1ccc(CN(Cc2ccccc2F)C(=O)c2ccc(Oc3ccccc3F)cc2)cc1 [Example 12, 4-((N-(2-Fluorobenzyl)-4-(2-fluorophenoxy)benzamido)-methyl)benzoic acid] | 9
7 | O=C(O)c1ccc(CN(CC2CC2)C(=O)c2ccc(Oc3c(F)cccc3Cl)cc2)cc1 [Example 42, 4-((4-(2-Chloro-6-fluorophenoxy)-N-(cyclopropylmethyl)-benzamido)methyl)benzoic acid] | 17
8 | Cc1ccccc1Oc1ccc(C(=O)N(Cc2ccc(C(=O)O)cc2)CC2CCC2)cc1 [Example 23, 4-((N-(Cyclobutylmethyl)-4-(o-tolyloxy)benzamido)methyl)benzoic acid] | 44
9 | O=C(O)c1ccc(CN(CCc2ccccc2)C(=O)c2ccc(Oc3ccccc3C(F)(F)F)cc2)cc1 [Example 26, 4-((N-Phenethyl-4-(2-(trifluoromethyl)phenoxy)benzamido)-methyl)benzoic acid] | 260
10 | COc1ccccc1O[C@H]1CC[C@H](C(=O)N(Cc2ccccc2)Cc2ccc(C(=O)O)cc2)CC1 [Example 56, trans-4-((N-Benzyl-4-(2-methoxyphenoxy)cyclohexanecarboxamido)methyl)benzoic acid] | 180
11 | COc1cccc(CN(Cc2ccc(C(=O)O)c(F)c2)C(=O)c2ccc(Oc3ccccc3F)cc2)c1 [Example 59, 2-Fluoro-4-((4-(2-fluorophenoxy)-N-(3-methoxybenzyl)benzamido)methyl)benzoic acid] | 6
12 | O=C(O)c1ccc(CN(CCc2ccccc2)C(=O)c2ccc(Oc3cccc(Cl)c3)cc2)cc1 [Example 50, 4-((4-(3-Chlorophenoxy)-N-phenethylbenzamido)methyl)benzoic acid] | 3600
13 | O=C(O)c1ccc(CN(CCc2ccccc2)C(=O)c2ccc(Oc3ccccc3F)cc2)cc1 [Example 15, 4-((4-(2-Fluorophenoxy)-N-phenethylbenzamido)methyl)benzoic acid] | 120
14 | O=C(O)c1ccc(CN(CC2CCC2)C(=O)c2ccc(Oc3ccccc3F)cc2)cc1 [Example 6, 4-((N-(Cyclobutylmethyl)-4-(2-fluorophenoxy)benzamido)-methyl)benzoic acid] | 24
15 | O=C(O)c1ccc(CN(Cc2ccccc2)C(=O)c2ccc(OCc3ccccc3F)cc2)cc1 [Example 53, 4-((N-Benzyl-4-((2-fluorobenzyl)oxy)benzamido)methyl)benzoic acid] | 58
16 | O=C(O)c1ccc(CN(CC2CC2)C(=O)c2ccc(Oc3ccccc3Cl)cc2)cc1 [Example 35, 4-((4-(2-Chlorophenoxy)-N-(cyclopropylmethyl)benzamido)-methyl)benzoic acid] | 7
17 | O=C(O)c1ccc(CN(Cc2ccccc2)C(=O)C2CCC(Oc3ccccc3F)CC2)cc1 (stereo not shown) [Example 55, 4-((N-Benzyl-4-(2-fluorophenoxy)cyclohexanecarboxamido)-methyl)benzoic acid] | 690

Row | SMILES | IC50 [nM]
18 | O=C(O)c1ccc(CN(CCCCc2ccccc2)C(=O)c2ccc(Oc3ccccc3F)cc2)cc1 [Example 21, 4-((4-(2-Fluorophenoxy)-N-(4-phenylbutyl)-benzamido)methyl)benzoic acid] | 11
19 | O=C(O)c1ccc(CN(CC2CCC2)C(=O)c2ccc(OCc3ccccc3F)cc2)cc1 [Example 52, 4-((N-(Cyclobutylmethyl)-4-((2-fluorobenzyl)oxy)benzamido)-methyl)benzoic acid] | 370
20 | O=C(O)c1ccc(CN(Cc2ccccc2)C(=O)c2ccc(Oc3c(F)cccc3F)cc2)cc1 [Example 39, 4-((N-Benzyl-4-(2,6-difluorophenoxy)benzamido)methyl)benzoic acid] | 11
21 | O=C(O)c1ccc(CN(CC2CC2)C(=O)c2ccc(OCc3ccccc3F)cc2)cc1 [Example 51, 4-((N-(Cyclopropylmethyl)-4-((2-fluorobenzyl)oxy)benzamido)-methyl)benzoic acid] | 53
22 | Cc1cccc(F)c1Oc1ccc(C(=O)N(Cc2ccc(C(=O)O)cc2)CC2CCC2)cc1 [Example 41, 4-((N-(Cyclobutylmethyl)-4-(2-fluoro-6-methylphenoxy)benzamido)methyl)benzoic acid] | 89
23 | O=C(O)c1ccc(CN(Cc2ccccc2)C(=O)c2ccc(Oc3c(F)cccc3Cl)cc2)cc1 [Example 44, 4-((N-Benzyl-4-(2-chloro-6-fluorophenoxy)benzamido)-methyl)benzoic acid] | 11
24 | COC1CC(CN(Cc2ccc(C(=O)O)cc2)C(=O)c2ccc(Oc3ccccc3F)cc2)C1 (stereo not shown) [Example 7, 4-((4-(2-Fluorophenoxy)-N-((3-methoxycyclobutyl)methyl)-benzamido)methyl)benzoic acid] | 31
25 | O=C(O)c1ccc(CN(CCC2CCC2)C(=O)c2ccc(Oc3ccccc3F)cc2)cc1 [Example 10, 4-((N-(2-Cyclobutylethyl)-4-(2-fluorophenoxy)benzamido)-methyl)benzoic acid] | 48
26 | CCN(Cc1ccc(C(=O)O)cc1)C(=O)c1ccc(Oc2ccccc2F)cc1 [Example 1, 4-((N-Ethyl-4-(2-fluorophenoxy)benzamido)methyl)benzoic acid] | 840
27 | COc1cccc(Oc2ccc(C(=O)N(CCc3ccccc3)Cc3ccc(C(=O)O)cc3)cc2)c1 [Example 48, 4-((4-(3-Methoxyphenoxy)-N-phenethylbenzamido)methyl)benzoic acid] | 3300
28 | O=C(O)c1ccc(CN(CC(F)F)C(=O)c2ccc(Oc3ccccc3F)cc2)cc1 [Example 2, 4-((N-(2,2-Difluoroethyl)-4-(2-fluorophenoxy)benzamido)-methyl)benzoic acid] | 690
29 | O=C(O)c1ccc(CN(CCC2CC2)C(=O)c2ccc(Oc3c(F)cccc3Cl)cc2)cc1 [Example 43, 4-((4-(2-Chloro-6-fluorophenoxy)-N-(2-cyclopropylethyl)-benzamido)methyl)benzoic acid] | 58
30 | COc1ccc(Oc2ccc(C(=O)N(CCc3ccccc3)Cc3ccc(C(=O)O)cc3)cc2)cc1 [Example 49, 4-((4-(4-Methoxyphenoxy)-N-phenethylbenzamido)methyl)benzol acid] | 4600
31 | CCOc1ccccc1Oc1ccc(C(=O)N(Cc2ccc(C(=O)O)cc2)CC2CC2)cc1 [Example 34, 4-((N-(Cyclopropylmethyl)-4-(2-ethoxyphenoxy)-benzamido)methyl)benzoic acid] | 460
32 | O=C(O)c1ccc(CN(CCC2CC2)C(=O)c2ccc(Oc3ccccc3F)cc2)cc1 [Example 9, 4-((N-(2-Cyclopropylethyl)-4-(2-fluorophenoxy)benzamido)-methyl)benzoic acid] | 15
33 | O=C(O)c1ccc(CN(CCCc2ccccc2F)C(=O)c2ccc(Oc3ccccc3F)cc2)cc1 [Example 16, 4-((4-(2-Fluorophenoxy)-N-(3-(2-fluorophenyl)propyl)benzamido)methyl)benzoic acid] | 1

Target: human LPA1 receptors (Homo sapiens (Human), UniProt Q92633)
Assay: In vitro LPA1 receptor assay (LPA-driven intracellular calcium release, FLIPR)
Type: cell-based
Settings: RH7777 cells expressing human LPA1 receptors; LPA at EC80
Description: In Vitro LPA1 Receptor Assay
as §1, with “LPA1” for “LPA5”
The ability of test compounds to prevent LPA-driven intracellular release of stored calcium from RH7777 cells expressing human LPA1 receptors was assayed by stimulating the cells with LPA in the presence of various test compounds to measure the test compounds' antagonism, i.e. activity in vitro.
as §2, with “(Dulbecco's Modified Eagle” for “(Minimal Essential”, “collagen” for “poly-D-lysine”, “(Beckton Dickinson).” for “(Corning).”
as §3, with “twenty five” for “fifteen”

human LPA1 receptors, sequence (Q92633 whole entry): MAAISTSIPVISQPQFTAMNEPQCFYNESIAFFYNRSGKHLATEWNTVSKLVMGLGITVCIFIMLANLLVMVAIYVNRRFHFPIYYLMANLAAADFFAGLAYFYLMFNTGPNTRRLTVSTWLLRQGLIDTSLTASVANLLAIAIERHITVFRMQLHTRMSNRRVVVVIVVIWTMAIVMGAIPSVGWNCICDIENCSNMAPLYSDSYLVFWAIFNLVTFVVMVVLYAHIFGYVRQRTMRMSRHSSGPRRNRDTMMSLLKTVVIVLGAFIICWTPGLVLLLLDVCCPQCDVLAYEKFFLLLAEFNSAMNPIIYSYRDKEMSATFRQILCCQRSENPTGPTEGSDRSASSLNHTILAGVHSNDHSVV

Row | SMILES | IC50 [nM]
34 | COc1ccccc1Oc1ccc(C(=O)N(Cc2ccc(C(=O)O)cc2)CC(C)(F)F)cc1 [Example 63, 4-((N-(2,2-Difluoropropyl)-4-(2-methoxyphenoxy)-benzamido)methyl)benzoic acid] | 7
35 | O=C(O)c1ccc(CN(CC2CC2)C(=O)c2ccc(Oc3ccccc3F)cn2)cc1 [Example 77, 4-((N-(Cyclopropylmethyl)-5-(2-fluorophenoxy)picolinamido)methyl)benzoic acid] | 86
36 | Cc1ccccc1Oc1ccc(C(=O)N(Cc2ccc(C(=O)O)cc2)CC(F)(F)F)cc1 [Example 70, 4-((4-(o-Tolyloxy)-N-(2,2,2-trifluoroethyl)benzamido)methyl)benzoic acid] | 47
37 | CCCN(Cc1ccc(C(=O)O)cc1)C(=O)c1ccc(Oc2ccccc2OC)cc1 [Example 62, 4-((4-(2-Methoxyphenoxy)-N-propylbenzamido)methyl)benzoic acid] | 5
